US8703483B2, “Reagents and methods for using human embryonic stem cells to evaluate toxicity of pharmaceutical compounds and other chemicals” (Wisconsin Alumni Research Foundation, priority 2006, dated 2014)

Tested on: human embryonic stem cells
Experiment: Metabolite profiling (LC/ESI-TOF mass spectrometry) of extracellular media of hESCs treated with alcohol
Format: cell-based
Conditions: ETOH 0.1; 4 D
Text: Binned masses were annotated in silico by querying the neutral masses in several different databases. These databases included Metlin, Biological Magnetic Resonance Data Bank (BMRB), NIST Chemistry WebBook, and the Human Metabolome Database. A mass was considered identified when its neutral mass was within 10 ppm of a known compound annotated in one of the databases listed above.

How did the “Fold: 2-Oxo-4-methylthiobutanoic acid, mass 148.016, RT 52.88652” value turn out when CCO [ETOH] was run?
Its value is −2.444 fold.

What about the “Fold: 3-(2,5-Dimethoxy phenylpropionic acid, mass 210.0922, RT 36.18938)” value of the same compound?
Its value is 1.864 fold.

What about the “Fold: (+)-Eudesmin, mass 386.1724, RT 51.65871” value of the same compound?
Its value is 5.309 fold.

And the “Fold: (+/−)-2-(4′-Isobutylphenyl)propionitrile, mass 187.1348, RT 46.31086” value?
Its value is 2.329 fold.

And the “Fold: Acetylcarnitine / L-Glutamic acid n-butyl ester, mass 203.1138, RT 9.675726” value?
Its value is −1.707 fold.

And the “Fold: Benzenemethanol, 2-(2-aminopropoxy)-3-methyl- / a-[1-(ethylamino)ethyl]-p-hydroxy-Benzyl alcohol, mass 195.124, RT 31.19917” value?
The value was −2.225 fold.

And the “Fold: Benzenemethanol, 2-(2-aminopropoxy)-3-methyl- / a-[1-(ethylamino)ethyl]-p-hydroxy-Benzyl alcohol, mass 195.1253, RT 38.99212” value?
The value was 2.159 fold.

What about the “Fold: Homogentisic acid / Vanillic acid, mass 168.0434, RT 19.18355” value of the same compound?
Its value is −1.468 fold.

What about the “Fold: L-Oleandrosyl-oleandolide, mass 530.314, RT 23.87065” value of the same compound?
The value was 1.965 fold.

And the “Fold: L-Urobilinogen;, mass 596.3543, RT 25.14927” value?
The value was 1.396 fold.

What about the “Fold: N-Methyl-2-pyrrolidinone, mass 99.0689, RT 15.48433” value of the same compound?
The value was 1.434 fold.

What about the “Fold: Neu5Acalpha2-3Galbeta1-4Glcbeta-Sp / Neu5Acalpha2-6Galbeta1-4Glcbeta-Sp, mass 702.2497, RT 40.84822” value of the same compound?
The value was −2.769 fold.

What about the “Fold: Pantothenol / dimethylbutanamide;, mass 205.1304, RT 6.747279” value of the same compound?
The value was −1.2578 fold.

What about the “Fold: Phenanthrene-9,10-oxide, mass 194.073, RT 5.935143” value of the same compound?
Its value is −1.389 fold.

And the “Fold: Unknown, mass 99.1043, RT 52.01225” value?
The value was 2.703 fold.

What about the “Fold: Unknown, mass 120.2112, RT 13.40565” value of the same compound?
The value was 4.847 fold.

And the “Fold: Unknown, mass 131.076, RT 14.35336” value?
Its value is 3.629 fold.

And the “Fold: Unknown, mass 197.1769, RT 48.37093” value?
The value was −3.119 fold.

And the “Fold: Unknown, mass 243.1089, RT 17.7027” value?
The value was −2.181 fold.

And the “Fold: Unknown, mass 268.2487, RT 42.3656” value?
The value was −1.55 fold.

And the “Fold: Unknown, mass 272.16, RT 43.99398” value?
The value was 2.187 fold.

What about the “Fold: Unknown, mass 292.1862, RT 37.97297” value of the same compound?
Its value is 2.239 fold.

And the “Fold: Unknown, mass 293.9773, RT 4.014175” value?
Its value is 1.939 fold.

What about the “Fold: Unknown, mass 295.1521, RT 8.967061” value of the same compound?
The value was 1.513 fold.

And the “Fold: Unknown, mass 298.174, RT 50.75387” value?
Its value is −3.002 fold.

What about the “Fold: Unknown, mass 300.1147, RT 18.88505” value of the same compound?
The value was 2.686 fold.

What about the “Fold: Unknown, mass 301.1345, RT 7.719471” value of the same compound?
The value was 6.649 fold.

And the “Fold: Unknown, mass 312.1341, RT 15.22357” value?
Its value is −2.015 fold.

What about the “Fold: Unknown, mass 315.6732, RT 26.51229” value of the same compound?
The value was 2.015 fold.

What about the “Fold: Unknown, mass 325.2711, RT 18.82373” value of the same compound?
The value was −1.756 fold.

And the “Fold: Unknown, mass 325.2714, RT 20.94557” value?
The value was −2.074 fold.

And the “Fold: Unknown, mass 353.2765, RT 3.85935” value?
Its value is 2.622 fold.

What about the “Fold: Unknown, mass 357.1781, RT 25.16993” value of the same compound?
The value was 2.217 fold.

And the “Fold: Unknown, mass 359.1532, RT 24.01428” value?
The value was 1.536 fold.

What about the “Fold: Unknown, mass 360.1321, RT 18.50245” value of the same compound?
The value was 2.11 fold.

And the “Fold: Unknown, mass 362.2787, RT 83.72506” value?
Its value is 2.916 fold.

And the “Fold: Unknown, mass 368.2122, RT 27.98054” value?
Its value is 1.695 fold.

What about the “Fold: Unknown, mass 379.1771, RT 20.76168” value of the same compound?
Its value is 1.54 fold.

What about the “Fold: Unknown, mass 383.1721, RT 15.20829” value of the same compound?
Its value is 1.915 fold.

And the “Fold: Unknown, mass 384.2127, RT 23.38956” value?
Its value is −2.556 fold.

What about the “Fold: Unknown, mass 387.0812, RT 19.97914” value of the same compound?
Its value is −1.977 fold.

What about the “Fold: Unknown, mass 388.2349, RT 46.346” value of the same compound?
The value was 1.947 fold.

And the “Fold: Unknown, mass 403.1978, RT 51.66325” value?
Its value is 3.116 fold.

What about the “Fold: Unknown, mass 405.2001, RT 30.70733” value of the same compound?
The value was 2.668 fold.

And the “Fold: Unknown, mass 408.1636, RT 16.21743” value?
The value was 1.966 fold.

And the “Fold: Unknown, mass 417.2338, RT 33.09057” value?
Its value is 2.033 fold.

What about the “Fold: Unknown, mass 417.2386, RT 21.14975” value of the same compound?
Its value is −1.98 fold.

And the “Fold: Unknown, mass 420.1862, RT 26.77212” value?
The value was 3.283 fold.

What about the “Fold: Unknown, mass 429.2533, RT 18.03482” value of the same compound?
Its value is −1.808 fold.

What about the “Fold: Unknown, mass 429.2535, RT 30.24237” value of the same compound?
The value was 1.805 fold.

And the “Fold: Unknown, mass 431.2501, RT 35.58196” value?
The value was 1.532 fold.

What about the “Fold: Unknown, mass 440.0223, RT 4.808947” value of the same compound?
Its value is −1.528 fold.

What about the “Fold: Unknown, mass 443.2381, RT 24.13915” value of the same compound?
The value was 2.986 fold.

And the “Fold: Unknown, mass 443.3216, RT 67.0705” value?
Its value is 1.752 fold.

What about the “Fold: Unknown, mass 444.2237, RT 51.58546” value of the same compound?
The value was 2.131 fold.

What about the “Fold: Unknown, mass 460.9391, RT 33.51823” value of the same compound?
The value was −4.518 fold.

What about the “Fold: Unknown, mass 467.3804, RT 46.51446” value of the same compound?
Its value is 2.068 fold.

And the “Fold: Unknown, mass 468.2002, RT 51.6158” value?
Its value is 1.875 fold.

What about the “Fold: Unknown, mass 471.7804, RT 30.72707” value of the same compound?
The value was −2.836 fold.

What about the “Fold: Unknown, mass 478.2761, RT 30.28867” value of the same compound?
The value was 1.699 fold.

What about the “Fold: Unknown, mass 487.3472, RT 66.73744” value of the same compound?
Its value is 2.931 fold.

And the “Fold: Unknown, mass 489.2127, RT 21.72729” value?
The value was −1.51 fold.

And the “Fold: Unknown, mass 510.8202, RT 31.22083” value?
Its value is 2.488 fold.

And the “Fold: Unknown, mass 525.3161, RT 34.57864” value?
The value was 1.551 fold.

And the “Fold: Unknown, mass 526.2773, RT 51.73057” value?
Its value is 3.446 fold.

What about the “Fold: Unknown, mass 531.2876, RT 32.50661” value of the same compound?
Its value is 2.106 fold.

And the “Fold: Unknown, mass 531.3191, RT 35.58454” value?
Its value is −1.252 fold.

And the “Fold: Unknown, mass 531.3736, RT 66.31491” value?
Its value is 3.863 fold.

What about the “Fold: Unknown, mass 541.3274, RT 32.24719” value of the same compound?
The value was 2.162 fold.

What about the “Fold: Unknown, mass 545.3029, RT 17.6573” value of the same compound?
The value was −1.395 fold.

What about the “Fold: Unknown, mass 554.8471, RT 31.891” value of the same compound?
The value was 2.038 fold.

What about the “Fold: Unknown, mass 555.2406, RT 15.78741” value of the same compound?
Its value is 1.835 fold.

What about the “Fold: Unknown, mass 555.8505, RT 5.742094” value of the same compound?
Its value is −1.289 fold.

And the “Fold: Unknown, mass 556.3971, RT 88.02533” value?
The value was −3.118 fold.

And the “Fold: Unknown, mass 559.8329, RT 31.97996” value?
The value was −1.7213 fold.

And the “Fold: Unknown, mass 574.3397, RT 24.7039” value?
The value was 1.584 fold.

And the “Fold: Unknown, mass 574.3427, RT 31.71105” value?
The value was 1.75 fold.

And the “Fold: Unknown, mass 576.096, RT 47.90467” value?
The value was 1.361 fold.

And the “Fold: Unknown, mass 589.6938, RT 35.26918” value?
Its value is 1.82 fold.

What about the “Fold: Unknown, mass 591.3789, RT 31.54325” value of the same compound?
The value was 1.578 fold.

And the “Fold: Unknown, mass 603.3535, RT 32.67372” value?
Its value is −2.63 fold.

What about the “Fold: Unknown, mass 619.3409, RT 33.68866” value of the same compound?
The value was 1.857 fold.

What about the “Fold: Unknown, mass 620.8861, RT 32.73907” value of the same compound?
Its value is 2.249 fold.

What about the “Fold: Unknown, mass 635.4065, RT 32.08734” value of the same compound?
Its value is 1.393 fold.
